We go through one compound from patent publication US7657076B2, “Characterizing biological stimuli by response curves” (Cytokinetics, Inc., priority 2001, dated 2010).

Molecules are shown by their SMILES.

Assay [1] deals with HUVEC, A498, A548, SF268, SKOV3, and DU145. Briefly: Multivariate quantitative phenotype dose response by image analysis (tubulin feature). The format is cell-based, human. From the text:
As indicated, phenotypic vectors for given stimuli and level combinations may include multivariate information taken from different cell lines. However, this need not be the case, as all the multivariate data of interest may be obtained from a single cell line. Generally, a researcher will chose one or a range of cell lines that are relevant to the area of interest. For example, if the researcher focuses on oncology applications, the cell lines chosen may include different types of cancers and possibly other cells lines that allow one to identify typical side effects of anti cancer drugs. In one specific embodiment pertaining to oncology, six different cell lines are considered. These include HUVEC (human umbilical vein endothelial cells), A498, A548, SF268, SKOV3, and DU145.
In a more specific embodiment, the parameter set for each dose/compound point in a response path includes parameters derived from DNA markers, Golgi markers, and tubulin markers. […] The size of the nuclei as derived from a DNA marker. […]
The data points are presented within the first three principal components obtained for the entire data set. […] The specific features and cell lines used to construct the quantitative phenotypes shown as points in the plot are set forth above in the “Multivariate Phenotypic Data from Images” and “Selecting Experiments for Providing Response Paths” sections. […]

In assay [2] the test system is microtubule assembly. The following applies: review of the literature; cited from earlier work.

With `C=C1[C@@H](C)[C@H]2[C@H](Cc3ccccc3)NC(=O)[C@]23OC(=O)/C=C/C(=O)CCC[C@@H](C)C/C=C/[C@H]3[C@@H]1O` [Cytochalasin A], the “change in tubulin biological features with increasing concentration” value in assay [1] (all cell lines, eight concentrations) was “lack of an increase in the tubulin features”. In addition, in assay [1] (inferred from common PCA trajectory at lower concentrations), the “affinity of the microtubule side effect compared with affinity for actin” value is listed as “lower affinity”. Also, the “effect on microtubule assembly” value in assay [2] is reported as “interferes with microtubule assembly by reacting with sulfhydryl groups”.
